Assay results taken from patent publication US10214478B2, “Amantadine nitrate compounds with neural protective effect, and preparation and medical use thereof” (GUANGZHOU MAGPIE PHARMACEUTICALS CO., LTD., priority 2016, dated 2019).

Test system: primary cerebellum granule cells of rats
Test: Protective effects of compounds on primary cerebellum granule cells of rats (glutamate-induced excitotoxic injury, MTT)
Type: cell-based
Details: pre-protection 2 h, 200 iM glutamate 24 h, MTT cell viability; read-out: EC50, protective effects of the compounds on rat's nerve cells
Procedure: Isolated primary cerebellum granule cells of infant rats were inoculated in 96-well plates with 1.2×10^5/well by using 10% FBS+25 mM KCl+2 mM Glutamine+1% of double-antibody BME medium. After 24 hours, cytarabine with a final concentration of 10 iM was added to inhibit the proliferation of neurogliocyte cells. After the day 4, glucose with the final concentration of 5 mM was added every four days to complement energy metabolism and water evaporation of cells. The materials were placed in a cell incubator (37° C., 5% CO2) to be cultured for 10 days. […] After pre-protection for 2 h, 200 iM of glutamate was added to induce cell damage for 24 h, and then MTT was added to culture for 4 h. The supernatant fraction was sucked, and 150 iL of DMSO was added to each well for dissolving. After blending with shaking, the light absorption values under 570 nm wavelength was measured with a microplate reader, and the viability of cells was calculated. Cell viability (%)=absorbance of different groups/absorbance of the normal control group×100%.

Compared with CC12CC3CC(N)(C1)CC(O[N+](=O)[O-])(C3)C2 (stereo not shown) [NM-001], CCC12CC3CC(N)(C1)CC(O[N+](=O)[O-])(C3)C2 (stereo not shown) [NM-003] is 1.6-fold lower in EC50: 24.6 µM for the first, 15.4 µM for the second.

CCC12CC3CC(N)(C1)CC(CO[N+](=O)[O-])(C3)C2 (stereo not shown) [NM-004] and CCC12CC3CC(N)(C1)CC(CCCO[N+](=O)[O-])(C3)C2 (stereo not shown) [NM-005] are within 1.5-fold of each other in EC50: 8.12 µM for the first, 6.06 µM for the second.

Compared with NC12CC3CC(CCO[N+](=O)[O-])(C1)CC(CCO[N+](=O)[O-])(C3)C2 [NM-009], CC(CO[N+](=O)[O-])CC12CC3CC(N)(C1)CC(CC(C)CO[N+](=O)[O-])(C3)C2 (stereo not shown) [NM-012] is 1.8-fold higher in EC50: 5.2 µM for the first, 9.3 µM for the second. The first is the more potent here.

CCC12CC3(N)CC(CC)(C1)CC(O[N+](=O)[O-])(C3)C2 [YQW-036, reference compound] gave an EC50 of 31.4 µM.
